The values below come from patent publication US20230312530A1, “SALT OF RHO-ASSOCIATED PROTEIN KINASE INHIBITOR, SOLID FORM OF THE SALT, PREPARATION METHOD FOR SAME, AND USES THEREOF” (BEIJING TIDE PHARMACEUTICAL CO., LTD., priority 2020, published 2023).

The data set is described as follows: Pharmacokinetic test, single oral administration to beagle dogs. It is filed as in vivo. The settings on record: dog, blood, 20 mg/kg, once, 20 mpk, vehicle 0.5% CMC-Na. As for the experimental part:
The crystalline form I of compound A monohydrochloride monohydrate and compound A (vehicles for both samples were 0.5% CMC-Na) were respectively orally administered once to two groups of beagle dogs at a dose of 20 mpk, and blood samples were collected before the administration (0 h) and at 0.25, 0.5, 1, 2, 4, 6, 8 and 24 hours after the administration. The samples were processed and subjected to a chromatographic analysis.

The compound `Cn1c(C(=O)N2CC(F)(F)C2)cc2ccc(-c3nccc(Nc4ccc(-c5cn[nH]c5)cc4)n3)cc21` [Compound A, (6-(4-((4-(1H-pyrazol-4-yl)phenyl)amino)pyrimidin-2-yl)-1-methyl-1H-indol-2-yl)(3,3-difluoroazetidin-1-yl)methanone] came in with a Cmax of 147 ng/mL. The same compound registered an AUC(0-t) (sampling to 24 hours) of 522 ng·h/mL.

For orientation: Cmax means the highest concentration seen after dosing. As a reminder, the AUC(0-t) is the area under the concentration-time curve up to a stated or last time point. A lower AUC(0-t) goes with low exposure.
